The record followed here is patent US20030100567A1, “Tyrosine kinase inhibitors” (priority 2001, published 2003).

Molecules are shown by their SMILES.

Holding throughout (conditions): in vivo
Data set [1] is described as follows: Pharmacokinetics in dog.
Data set [2] is described as follows: Pharmacokinetics in rhesus monkey.
A short description of data set [3]: Pharmacokinetics in rat.

In data set [1], `CC(=O)N1CCN(Cc2ccnc(Nc3ncc(C#N)s3)c2C)CC1` had a clearance of 14 mL/min/kg and a half-life of 1.4 h.

In data set [1], `CNC(=O)N1CCN(Cc2ccnc(Nc3ncc(C#N)s3)c2)CC1` [Compound 4-4, 4-[2-(5-cyano-thiazol-2-ylamino)-pyridin-4-ylmethyl]-piperazine-1-carboxylic acid methylamide] showed a bioavailability of 99%, a clearance of 0.5 mL/min/kg and a half-life of 17.4 h. In data set [2], this compound gave a bioavailability of 43%, a clearance of 13.4 mL/min/kg and a half-life of 1.7 h. Also, in data set [3], the bioavailability worked out at 49%, the clearance stood at 10.7 mL/min/kg and the half-life was 1.9 h.

Take `CS(=O)(=O)C1CCN(Cc2ccnc(Nc3ncc(C#N)s3)c2)CC1` [Compound 5-6, 2-[(4-{[4-(methylsulfonyl)piperidin-1-yl]methyl}pyridin-2-yl)amino]-1,3-thiazole-5-carbonitrile]: in data set [1], the bioavailability was found to be 95%, the clearance stood at 1.8 mL/min/kg and the half-life was 6.3 h. Besides, in data set [2], the bioavailability was 67%, the clearance is 3 mL/min/kg and the half-life was 5.5 h. Also, in data set [3], the bioavailability came to 70%, the clearance was 16.3 mL/min/kg and the half-life was 1.1 h.

In data set [1], `CN(C)C(=O)N1CCN(Cc2ccnc(Nc3ncc(C#N)s3)c2)CC1` had a bioavailability of 49%, a clearance of 3.6 mL/min/kg and a half-life of 3.4 h. In data set [3], the clearance was found to be 15.5 mL/min/kg and the half-life is 1.6 h.

In data set [1], `N#Cc1cnc(Nc2cc(CN3CCN(C(N)=O)CC3)ccn2)s1` had a clearance of 2.6 mL/min/kg and a half-life of 2.1 h.

The clearance is the rate of elimination divided by the concentration. The term half-life denotes the time in which the quantity being followed falls by half. For orientation: bioavailability means the share of a dose that reaches the circulation, judged against a reference dose that is usually intravenous.
